In assay [1] the test system is E17 primary cortical neurons. The assay can be described thus: Mitochondrial morphology (Tom20), primary cortical neurons. The assay is classed as cell-based, rat. The settings on record: 1 µM P259, two-hour treatment; n = 3, 10 images each. Here is the method:
Bottom, quantification of the form factor (degree of branching) and aspect ratio (major/minor axis length). At least 10,000 mitochondrial fragments were analyzed for each condition. Mitochondrial reactive oxygen species production (MitoSox Red) (b) and membrane potential (TMRM) (c) after overnight treatment with indicated concentrations of peptide (n = 3, with 3 replicates). […] Overlay of live microscopy imaging at time 0 (green) and 150 (red) seconds. […] An estimation of the % mobile mitochondria from the Pearson coefficient of each set of images. Data are mean ± s.e.
(§1) Human neuroblastoma SH-SY5Y cells purchased from ATCC were cultured in a 50/50 mixture of […]
(§2) using SH-SY5Y cells were carried out in the same growth medium with the exception of using […]
(§3) Wild-type and MFF knockout mouse embryonic fibroblast (MEF) cells were generously provided by Professor David Chan. […]
(§4) an NCBI protein blast of the P259 sequence ([…]) was performed across the human genome database and the top 75 gene query hits were recorded.7 The orthologs of each available gene were obtained from the Ensembl database.8 Of the resulting 75 human gene hits, 37 had […]
The effect of peptides on GTPase activity of Drp1 was measured by incubating recombinant Drp1 […]
for 1 hour at 37 °C. GTPase activity was measured using a colorimetric GTPase assay kit (Novus Biologicals, CO, USA) as instructed by the manufacturer. […]

The subject of assay [2] is Huntington's disease patient-derived fibroblasts. In words: Mitochondrial ROS (MitoSox) in HD patient-derived fibroblasts. The settings on record: indicated peptide concentration daily for three days, normalized to healthy fibroblast control; 3 independent experiments. The assay is classed as cell-based, human. Here is the method: (DNM1L) and MFF genes. a.
DNM1L and MFF throughout evolution. NCBI PSI -BLAST was performed for the human […]
corresponding to the human gene. c.
DNM1L and 7/7 isoforms of MFF. d. […]
affect mitochondrial fusion measured by photoconvertible den dra2 protein. Mito -dendra2 […]
The initial image following […]
species production (MitoSox). d.
Data are of 3 independent experiments with the whiskers calculated by the Turkey method. e. […]
production in an Mff -dependent manner. Mitochondrial reactive oxygen species production […]
treatment in each cell line. […]
determined by an unpaired, two -tailed t test). g. […]
control (no peptide treatment). Data are mean ± s.e. from 3 independent experiments.
as §1, §2, §3, §4
calculated as the average MitoSox signal per cell. […]

Where no end group is shown, it is not given here.

For the substance “YGRKKRRQRRRGSGIIQLPEIVVV-NH2 (C-terminus assumed) [P259]”, the mitochondrial morphology result in assay [1] is “more elongated and branched mitochondria”. Besides, the “mitochondrial ROS” value in assay [2] was “further increased mitochondrial ROS”.

For the origin of these results see publication PMC6145916, “Interaction of mitochondrial fission factor with dynamin related protein 1 governs physiological mitochondrial function in vivo” (Scientific Reports, 2018).
